Where “and” joins values, the source holds several entries; their conditions need not be identical. Equal values may be shown once.
Conditions: Liquid, Diaphragm manometer

Cl[SiH2]Cl [dichlorosilane]
Conditions | vapor or sublimation pressure
299.99 K | 214.5 kPa [middle of 4 runs]
300 K | 216.5 kPa and 212.1 kPa and 214.2 kPa
309.99 K | 284.3 kPa
319.98 K | 377.6 kPa
319.99 K | 377.9 kPa
320 K | 380.4 kPa and 381.43 kPa and 377.3 kPa
323.01 K | 407.8 kPa
329.99 K | 485.8 kPa
330.02 K | 492.2 kPa
339.99 K | 626.4 kPa [middle of 4 runs]
340 K | 628.6 kPa
343.01 K | 672.6 kPa
349.99 K | 784.7 kPa and 786.4 kPa and 789 kPa
350 K | 785 kPa
359.98 K | 981.9 kPa
359.99 K | 985.9 kPa [middle of 4 runs]
362.99 K | 1052.1 kPa
369.98 K | 1205 kPa
369.99 K | 1205 kPa and 1209 kPa
379.99 K | 1477 kPa [middle of 5 runs]
389.99 K | 1779 kPa and 1784 kPa and 1780.5 kPa
399.99 K | 2099 kPa and 2138 kPa
409.98 K | 2559 kPa
410 K | 2534 kPa
419.99 K | 3016 kPa

Cl[Si](Cl)(Cl)Cl [silicon tetrachloride]
Conditions | vapor or sublimation pressure
332.99 K | 113.02 kPa
340 K | 139.15 kPa and 138.98 kPa
350.01 K | 185.05 kPa
360 K | 241.64 kPa
370 K | 311.49 kPa
380 K | 395.69 kPa
390 K | 495.9 kPa
400 K | 614 kPa

Cl[SiH](Cl)Cl [trichlorosilane]
Conditions | vapor or sublimation pressure [kPa]
310 K | 121.89
320 K | 167.53
330 K | 225.35
340 K | 297.4
350 K | 385.6
360 K | 492.1
370 K | 619.6
380 K | 770.2
380.5 K | 778.2
385 K | 854.6
390 K | 946
395 K | 1044.2

— the NIST ThermoML archive (doi:10.1021/acs.jced.6b00142)
